From patent US20190262327A1, “COMBINATION OF A BACE INHIBITOR AND AN ANTIBODY OR ANTIGEN-BINDING FRAGMENT FOR THE TREATMENT OF A DISORDER ASSOCIATED WITH THE ACCUMULATION OF AMYLOID BETA” (ASTRAZENECA AB, priority 2016, published 2019)

System: sAPPβ release in SH-SY5Y cells
Assay: sAPPβ Release Assay
Assay type: cell-based
Conditions: Homo sapiens, 17 h
Method: Thaw cells and seed at a conc. of around 10000 cells/well in DMEM/F-12 with Glutamax, 10% FCS and 1% non-essential amino acids to a 384-well tissue culture treated plate, […] cell susp/well. The cell plates were then incubated for 7-24 h at 37° C., 5% CO2. The cell medium was removed, followed by addition of 30 μL compound diluted in DMEM/F-12 with Glutamax, 10% FCS, 1% non-essential amino acids and 1% PeSt to a final conc. of 1% DMSO. […] Meso Scale Discovery (MSD) plates were used for the detection of sAPPβ release. MSD sAPPβ plates were blocked in 1% BSA in Tris wash buffer (40 μL/well) for 1 h on shake at r.t. and washed 1 time in Tris wash buffer (40 μL/well). 20 μL of medium was transferred to the pre-blocked and washed MSD sAPPβ microplates, and the cell plates were further used in an ATP assay to measure cytotoxicity. The MSD plates were incubated with shaking at r.t. for 2 h and the media discarded. 10 μL detection antibody was added (1 nM) per well followed by incubation with shaking at r.t. for 2 h and then discarded. 40 μL Read Buffer was added per well and the plates were read in a SECTOR Imager.

CC#Cc1cncc(-c2ccc3c(c2)[C@@]2(N=C(C)C(N)=N2)[C@]2(CC[C@H](OC)CC2)C3)c1 [(1r,1′R,4R)-4-methoxy-5″-methyl-6′-[5-(prop-1-yn-1-yl)pyridin-3-yl]-3′H-dispiro[cyclohexane-1,2′-indene-1′2″-imidazol]-4″-amine]
IC50: 0.1 nM
